# Legend:
# HEK293 = assay: cells; format: functional; conditions: Homo sapiens, ATCC CRL1573, HEK293; ASSAY_TEST Inhibition of Cell Viability; detection method Resazurin; Fluorescence (ex560/em590); MEDIA DMEM with 10% FBS; plate type 384well; TC; CORNING #3712; time 18 hr
# Klebsiella pneumoniae = assay: microbe, parasite or virus in culture; conditions: ATCC 700603, 18 h, ASSAY_TEST Inhibition of Bacterial Growth, detection method Absorption (OD600), MEDIA CAMHB, plate type 384well, NBS, CORNING #3640
# Description: Antibacterial activity against Klebsiella pneumoniae MDR ATCC 70063 (CO-ADD:GN_003); MIC in CAMBH media using NBS plates, by OD(600)
# Acinetobacter baumannii = assay: microbe, parasite or virus in culture; conditions: ATCC 19606, 18 h, ASSAY_TEST Inhibition of Bacterial Growth, detection method Absorption (OD600), MEDIA CAMHB, plate type 384well, NBS, CORNING #3640
# Description: Antibacterial activity against Acinetobacter baumannii ATCC 19606 (CO-ADD:GN_034); MIC in CAMBH media using NBS plates, by OD600
# Staphylococcus aureus = assay: microbe, parasite or virus in culture; conditions: ATCC 43300, 18 h, ASSAY_TEST Inhibition of Bacterial Growth, detection method Absorption (OD600), MEDIA CAMHB, plate type 384well, NBS, CORNING #3640
# Description: Antibacterial activity against Staphylococcus aureus MRSA ATCC 43300 (CO-ADD:GP_020); MIC in CAMBH media, using NBS plates, by OD(600)
# Escherichia coli = assay: microbe, parasite or virus in culture; conditions: ATCC 25922, 18 h, ASSAY_TEST Inhibition of Bacterial Growth, detection method Absorption (OD600), MEDIA CAMHB, plate type 384well, NBS, CORNING #3640
# Description: Antibacterial activity against Escherichia coli ATCC 25922 (CO-ADD:GN_001); MIC in CAMBH media using NBS plates, by OD(600)
# Candida albicans = assay: microbe, parasite or virus in culture; conditions: ATCC 90028, ASSAY_TEST Inhibition of Fungal Growth, detection method Absorption (OD530), plate type 384well, NBS, CORNING #3640
# Description: Antifungal activity against Candida albicans ATCC 90028 (CO-ADD:FG_001); MIC in YNB media using NBS plates, by OD630
# Pseudomonas aeruginosa = assay: microbe, parasite or virus in culture; conditions: ATCC 27853, 18 h, ASSAY_TEST Inhibition of Bacterial Growth, detection method Absorption (OD600), MEDIA CAMHB, plate type 384well, NBS, CORNING #3640
# Description: Antibacterial activity against Pseudomonas aeruginosa ATCC 27853 (CO-ADD:GN_042); MIC in CAMBH media using NBS plates, by OD(600)
# Description for Cryptococcus neoformans: Antifungal activity against Cryptococcus neoformans H99 ATCC 208821 (CO-ADD:FG_002); MIC in YNB media using NBS plates, by Resazurin OD(600-570)
Structure (SMILES),CC50 (HEK293) [µg/mL],MIC (Klebsiella pneumoniae) [µg/mL],MIC (Acinetobacter baumannii) [µg/mL],MIC (Staphylococcus aureus) [µg/mL],MIC (Escherichia coli) [µg/mL],MIC (Candida albicans) [µg/mL],MIC (Pseudomonas aeruginosa) [µg/mL],MIC (Cryptococcus neoformans) [µg/mL]
CC1COc2c(N3CCN(C)CC3)c(F)cc3c(=O)c(C(=O)Nc4ccc(-c5n[nH]c(=S)o5)cc4)cn1c23.Cl (configuration not stated),> 32,≤ 0.25,0.5,≤ 0.25,≤ 0.25,> 32,≤ 0.25,> 32
Cl.O=C(Nc1ccc(-c2n[nH]c(=S)o2)cc1)c1cn(C2CC2)c2cc(N3CCNCC3)c(F)cc2c1=O,17.8,32,32,32,4,> 32,32,> 32
CC(O)C1C(=O)N2C(C(=O)Nc3ccc(-c4n[nH]c(=S)o4)cc3)=C(SC3CNC(C(=O)N(C)C)C3)C(C)C12.Cl (configuration not stated),> 32,> 32,> 32,> 32,> 32,> 32,> 32,> 32
COc1c(N2CC3CCCNC3C2)c(F)cc2c(=O)c(C(=O)Nc3ccc(-c4n[nH]c(=S)o4)cc3)cn(C3CC3)c12.Cl (configuration not stated),6.76,≤ 0.25,≤ 0.25,≤ 0.25,≤ 0.25,> 32,4,> 32

# Source: ChEMBL document CHEMBL4513138, “CO-ADD screening of University of Mosul (Iraq) compounds”
